Assay results published in ChEMBL document CHEMBL4334518, “Discovery and Pharmacological Studies of 4-Hydroxyphenyl-Derived Phosphonium Salts Active in a Mouse Model of Visceral Leishmaniasis” (J Med Chem, 2019).
Active and inactive are the calls of the source. The rule behind the calls is not given here.

Columns and labels:
Leishmania infantum [1] = test: Antileishmanial activity against Leishmania infantum promastigote after 72 hrs by MTT assay; type: functional, organism-based
[2] = Selectivity index, ratio of EC50 for cytotoxicity against human THP1 cells to EC50 for antileishmanial activity against Leishmania infantum amastigotes infected in human THP1 cells; type: toxicity, cell-based; details: read-out: Ratio EC50
[3] = Drug uptake in Leishmania infantum LEM 3049 isolate promastigotes at 20 uM after 10 mins at 4 degC by fluorimetric assay; type: ADME
[4] = Drug uptake in ATP depleted Leishmania infantum LEM 3049 isolate promastigotes at 20 uM after 10 mins in presence of 2-deoxy-D-glucose by fluorimetric assay; type: ADME
[5] = Drug uptake in Leishmania infantum LEM 3049 isolate promastigotes at 20 uM after 10 mins at 28 degC by fluorimetric assay; type: ADME
Leishmania infantum [6] = test: Antileishmanial activity against Leishmania infantum amastigotes infected in human THP1 cells after 96 hrs by prolong-gold antifade-reagent/DAPI staining based assay; type: functional, organism-based; details: THP-1, 96 h
THP-1 = test: Cytotoxicity against human THP1 cells assessed as reduction in cell viability after 72 hrs by MTT assay; type: cell-based; details: THP-1, 72 h
Leishmania donovani [7] = test: Antileishmanial activity against Leishmania donovani MHOM/ET/67/HU3 promastigote after 72 hrs by MTT assay; type: functional, organism-based; details: MHOM/ET/67/HU3, 72 h
Leishmania infantum [8] = test: Antileishmanial activity against Leishmania infantum LEM 3049 isolate promastigotes infected in BALB/c mouse assessed as reduction in parasite burden in liver at 1.5 mg/kg, po administered for 4 days and measured 2 days post last dose by light microscopic method relative to control; parameters: scale not given: the % may be the effect or the level left
Leishmania infantum [9] = test: Antileishmanial activity against MIL/paromomycin resistant Leishmania infantum LEM 2126 isolate promastigote after 72 hrs by MTT assay; type: functional, organism-based
Leishmania infantum [10] = test: Induction of mitochondrial membrane potential loss in Leishmania infantum LEM 3049 isolate promastigotes at 0.02 uM after 30 mins by JC-1 dye based flow cytometric analysis relative to control; type: functional
Leishmania infantum [11] = test: Induction of plasma membrane permeabilization in Leishmania infantum LEM 3049 isolate promastigotes 0.02 to 1 uM incubated for 2 hrs by SYTOX Green based flow cytometric analysis; type: functional, organism-based
Leishmania infantum [12] = test: Antileishmanial activity against Leishmania infantum LEM 3049 isolate promastigotes assessed as decrease in ATP level at 0.02 uM after 120 mins by CellTiter-Glo luminescence assay relative to control; type: functional; parameters: scale not given: the % may be the effect or the level left
Leishmania infantum [13] = test: Antileishmanial activity against Sb 3 resistant Leishmania infantum LEM 3329 isolate promastigote after 72 hrs by MTT assay; type: functional, organism-based
[14] = Primary phase half life in BALB/c mouse at 20 mg/kg, po measured for < 6 hrs by HPLC analysis; type: ADME, organism-based; details: in vivo, read-out: alphat1/2 (converted)
[15] = Cmax in BALB/c mouse at 20 mg/kg, po measured for up to 72 hrs by HPLC analysis; type: ADME, organism-based; parameters: dose 20 mg/kg, route oral; details: in vivo
Leishmania infantum [16] = test: Induction of plasma membrane depolarization in Leishmania infantum LEM 3049 isolate promastigotes incubated for 2 hrs by DiBAC4(3) probe based flow cytometric analysis; type: functional, organism-based
[17] = Plasma concentration in BALB/c mouse infected with Leishmania infantum LEM 3049 isolate promastigote at 1.5 mg/kg, po for 4 days by HPLC analysis
Leishmania infantum [18] = test: Antileishmanial activity against Leishmania infantum LEM 3049 isolate promastigote after 72 hrs by MTT assay; type: functional, organism-based
[19] = Half life in CD-1 mouse liver microsomes at 5 to 10 uM measured for 120 mins in presence of NADPH by RP-HPLC analysis; type: ADME, Microsome
Leishmania infantum [20] = test: Antileishmanial activity against Leishmania infantum LEM 3049 isolate promastigotes infected in BALB/c mouse assessed as reduction in parasite burden in spleen at 1.5 mg/kg, po administered for 4 days and measured 2 days post last dose by light microscopic method relative to control; parameters: scale not given: the % may be the effect or the level left
[21] = Drug concentration in BALB/c mouse spleen infected with Leishmania infantum LEM 3049 isolate promastigotes at 1.5 mg/kg, po administered for 4 days and measured 2 days post last dose by HPLC analysis; details: in vivo, 48 h, BLD = below limit of detection
[22] = Solubility of the compound in water; type: physicochemical; details: buffer
[23] = Drug concentration in BALB/c mouse liver infected with Leishmania infantum LEM 3049 isolate promastigotes at 1.5 mg/kg, po administered for 4 days and measured 2 days post last dose by HPLC analysis; details: in vivo, 48 h, BLD = below limit of detection
[24] = Metabolic stability in human liver S9 fraction at 5 to 10 uM measured for 120 mins in presence of NADPH by RP-HPLC analysis; type: ADME, subcellular; details: s9, 2 h
[25] = Selectivity index, ratio of EC50 for cytotoxicity against human THP1 cells to EC50 for antileishmanial activity against Leishmania donovani MHOM/ET/67/HU3 amastigotes infected in human THP1 cells; type: toxicity, cell-based; details: read-out: Ratio EC50
Leishmania donovani [26] = test: Antileishmanial activity against Leishmania donovani MHOM/ET/67/HU3 intracellular amastigotes infected in human THP1 cells after 96 hrs by prolong-gold antifade-reagent/DAPI staining based assay; type: functional, organism-based; details: MHOM/ET/67/HU3, THP-1, 96 h
Leishmania infantum [27] = test: Antileishmanial activity against MIL/paromomycin resistant Leishmania infantum LEM 2126 isolate intracellular amastigotes infected in human THP1 cells after 96 hrs by prolong-gold antifade-reagent/DAPI staining based assay; type: functional, organism-based; details: THP-1, 96 h
[28] = Acute toxicity in BALB/c mouse at 20 mg/kg, po; type: organism-based; details: in vivo
Leishmania infantum [29] = test: Induction of mitochondrial membrane potential loss in Leishmania infantum LEM 3049 isolate promastigotes at 1 uM after 24 hrs by JC-1 dye based flow cytometric analysis relative to control; type: functional
Leishmania infantum [30] = test: Antileishmanial activity against MIL resistant Leishmania infantum LEM 5159 isolate intracellular amastigotes infected in human THP1 cells after 96 hrs by prolong-gold antifade-reagent/DAPI staining based assay; type: functional, organism-based; details: THP-1, 96 h
Leishmania infantum [31] = test: Induction of apoptosis in Leishmania infantum LEM 3049 isolate promastigotes assessed as DNA fragmentation at 0.02 to 5 uM after 4 hrs by TUNEL assay; type: functional, organism-based
[32] = Apparent terminal half life in BALB/c mouse at 20 mg/kg, po measured for 6 to 72 hrs by HPLC analysis; type: ADME, organism-based; details: in vivo, read-out: betat1/2(app) (converted)
Leishmania infantum [33] = test: Antileishmanial activity against Leishmania infantum LEM 3049 isolate promastigotes assessed as decrease in ATP level at 0.1 uM after 120 mins by CellTiter-Glo luminescence assay relative to control; type: functional; parameters: scale not given: the % may be the effect or the level left
Leishmania infantum [34] = test: Antileishmanial activity against MIL resistant Leishmania infantum LEM 5159 isolate promastigote after 72 hrs by MTT assay; type: functional, organism-based
[35] = Metabolic stability in human liver S9 fraction at 10 to 20 uM measured for 120 mins in presence of UDPGA by RP-HPLC analysis; type: ADME, subcellular; details: s9, 2 h
Leishmania infantum [36] = test: Antileishmanial activity against Sb 3 resistant Leishmania infantum LEM 3329 isolate intracellular amastigotes infected in human THP1 cells after 96 hrs by prolong-gold antifade-reagent/DAPI staining based assay; type: functional, organism-based; details: THP-1, 96 h
Leishmania infantum [37] = test: Induction of ROS generation in Leishmania infantum LEM 3049 isolate promastigotes at 1 uM after 2 hrs by H2DCFDA staining based flow cytometric analysis relative to control; type: functional
[38] = Half life in human liver microsomes at 10 to 20 uM measured for 120 mins in presence of UDPGA by RP-HPLC analysis; type: ADME, Microsome
Leishmania infantum [39] = test: Antileishmanial activity against Leishmania infantum LEM 3049 isolate promastigotes assessed as decrease in ATP level at 0.02 to 1 uM after 30 mins by CellTiter-Glo luminescence assay relative to control; type: functional; parameters: scale not given: the % may be the effect or the level left
Leishmania infantum [40] = test: Antileishmanial activity against Leishmania infantum LEM 3049 isolate intracellular amastigotes infected in human THP1 cells after 96 hrs by prolong-gold antifade-reagent/DAPI staining based assay; type: functional, organism-based; details: THP-1, 96 h, read-out: EC50
[41] = Half life in human liver microsomes at 5 to 10 uM measured for 120 mins in presence of NADPH by RP-HPLC analysis; type: ADME, Microsome
[42] = Tmax in BALB/c mouse at 20 mg/kg, po measured for up to 72 hrs by HPLC analysis; type: ADME, organism-based; details: in vivo
[43] = Half life in CD-1 mouse liver microsomes at 10 to 20 uM measured for 120 mins in presence of UDPGA by RP-HPLC analysis; type: ADME, Microsome
[44] = Plasma concentration in BALB/c mouse infected with Leishmania infantum LEM 3049 isolate promastigotes at 1.5 mg/kg, po administered for 4 days and measured 2 days post last dose by HPLC analysis; details: in vivo, 48 h, BLD = below limit of detection
Leishmania infantum [45] = test: Antileishmanial activity against Leishmania infantum LEM 3049 isolate promastigotes assessed as decrease in ATP level at 1 uM after 120 mins by CellTiter-Glo luminescence assay relative to control; type: functional; parameters: scale not given: the % may be the effect or the level left
Leishmania donovani [46] = test: Potency index, ratio of amphotericin B EC50 to test compound EC50 for antileishmanial activity against Leishmania […] amastigote infected in THP1 cells; type: functional
[47] = Thermodynamic solubility of the compound in 5% gamma-cyclodextrin in water (w/w) colloidal suspension; type: physicochemical; details: read-out: Therm_solubility

O=C(CCCCCCCCCCCCCCC[P+](c1cccc2ccccc12)(c1cccc2ccccc12)c1cccc2ccccc12)c1ccc(O)cc1O.[Br-]
EC50 (Leishmania infantum [1]): 3540 nM | selectivity ratio [2]: 10.3 | Drug uptake [3]: Active | Drug uptake [4]: Active | Drug uptake [5]: Active | EC50 (Leishmania infantum [6]): 1250 nM | EC50 (THP-1): 12800 nM

O=C(CCCCCCCCCCCCCCC[P+](c1ccccc1)(c1ccccc1)c1ccccc1)c1ccc(O)cc1O.[Br-]
EC50 (Leishmania donovani [7]): 70 nM | Activity (Leishmania infantum [8]): 95.3% | EC50 (Leishmania infantum [9]): 120 nM | Activity (Leishmania infantum [10]): 86% | Activity (Leishmania infantum [11]): inactive | Activity (Leishmania infantum [12]): 91% | EC50 (Leishmania infantum [13]): 100 nM | half-life [14]: 1 h | Cmax [15]: 182 µM | Activity (Leishmania infantum [16]): Dose-dependent effect | concentration at 96 h [17]: > 0.09 µM | EC50 (Leishmania infantum [18]): 80 nM | half-life [19]: < 0.5 h | Activity (Leishmania infantum [20]): 98.9% | Drug uptake [21]: Bld | solubility [22]: Insoluble | Drug uptake [23]: Bld | Stability [24]: Stable | selectivity ratio [25]: 31.2 | EC50 (Leishmania donovani [26]): 90 nM | EC50 (Leishmania infantum [27]): 140 nM | Activity [28]: Toxic | Activity (Leishmania infantum [29]): 97% | EC50 (Leishmania infantum [30]): 140 nM | Activity (Leishmania infantum [31]): inactive | half-life [32]: 23 h | Activity (Leishmania infantum [33]): 89% | EC50 (Leishmania infantum [34]): 110 nM | Stability [35]: Stable | EC50 (Leishmania infantum [36]): 150 nM | fold change (FC) (Leishmania infantum [37]): 8 | half-life at up to 20 µM [38]: > 2 h | Activity (Leishmania infantum [39]): 50 - 74% | EC50 (Leishmania infantum [40]): 120 nM | half-life [41]: > 2 h | Tmax [42]: 1 h | half-life at up to 20 µM [43]: < 0.5 h | Cp [44]: Bld | Activity (Leishmania infantum [45]): 87% | Ratio EC50 (Leishmania donovani [46]): 2 | solubility thermodynamic [47]: 520 µg/mL | EC50 (THP-1): 2810 nM
